Tested on: CD1 Mice
Test: toxicity in healthy mice: weight loss after a single intravenous dose, observed for seven days
Type: in vivo, mouse
Settings: single 20 mg/kg dose intravenously
Experimental: CD1 Mice were injected intravenously with a single 20 mg/kg dose each of compounds 2a, 2b, daunorubicin, and vehicle and observed for seven days, before euthanization. […] Thus, compounds of the invention appear to be less toxic than Daunorubicin when administered to healthy mice.

SMILES	weight loss as compared with the control group
COc1cccc2c1C(=O)c1c(O)c3c(c(O)c1C2=O)C[C@@](O)(C(C)=O)C[C@@H]3O[C@H]1CC2[C@H](OCOCN2C(=O)OCc2cnc([N+](=O)[O-])n2C)[C@H](C)O1 (stereo partly drawn) [Compound 2a]	did not undergo significant weight loss
COc1cccc2c1C(=O)c1c(O)c3c(c(O)c1C2=O)C[C@@](O)(C(C)=O)C[C@@H]3O[C@H]1CC2[C@H](OCOCN2C(=O)OCc2ncc([N+](=O)[O-])n2C)[C@H](C)O1 (stereo partly drawn) [Compound 2b]	did not undergo significant weight loss
COc1cccc2c1C(=O)c1c(O)c3c(c(O)c1C2=O)C[C@@](O)(C(C)=O)C[C@@H]3O[C@H]1C[C@H](N)[C@H](O)[C@H](C)O1 [Daunorubicin, reference compound]	Significant weight loss
